Patent US20040072907A1, “Antipicornaviral compounds, compositions containing them, and methods for their use” (priority 1997, published 2004)
Like-named read-outs stand apart in the source and are kept apart here.

Experiments:
HRV serotype-14 = assay: Antirhinoviral HI-HeLa cell culture assay (XTT cell protection), HRV-14; type: cell-based, human rhinovirus
Experimental: (§1) In the Cell Protection Assay, the ability of compounds to protect cells against HRV infection was measured by the XTT dye reduction method. This method is described in Weislow, O. S., Kiser, R., Fine, D. L., Bader, J., Shoemaker, R. H., Boyd, M. R., J. Natl. Cancer Inst. 1989, 81, 577-586, the disclosure of which is incorporated herein by reference.
(§2) Infected or mock-infected cells were resuspended at 8×10^5 cells per mL and incubated with appropriate concentrations of compounds of formula I. Two days later, XTT/PMS was added to test plates, and the amount of formazan produced was quantified spectrophotometrically at 450/650 nm. […] The therapeutic index (TI) was calculated by dividing the CC50 by the EC50.
(§3) All strains of human rhinovirus (HRV) for use in this assay were purchased from American Type Culture Collection (ATCC) except for HRV serotype-14, which was produced from the infectious cDNA clone constructed and supplied to Applicants by Dr. Robert Rueckert at the Institute for Molecular Virology, University of Wisconsin, Madison, Wis. HRV stocks were propagated, and viral assays were performed in HI-HeLa cells (ATCC). Cells were grown in Minimal Essential Medium, available from Life Technologies, with 10% fetal bovine serum.
(§4) The compounds were tested against control compounds WIN 51711, WIN 52084, and WIN 54954, all obtained from Sterling-Winthrop Pharmaceuticals, and control compound Pirodavir, obtained from Janssen Pharmaceuticals. Antiviral data obtained for the test compounds are shown in Table 2 where all data are for HRV serotype-14 unless otherwise noted in parentheses.

HRV serotype 2 = assay: Antirhinoviral HI-HeLa cell culture assay (XTT cell protection), HRV-2; type: cell-based, human rhinovirus; settings: HRV serotype 2, HI-HeLa cells
Experimental: as §1, §2, §3, §4

HRV serotype 10 = assay: Antirhinoviral HI-HeLa cell culture assay (XTT cell protection), HRV-10; type: cell-based, human rhinovirus; settings: HRV serotype 10, HI-HeLa cells
Experimental: as §1, §2, §3, §4

HRV serotype 89 = assay: Antirhinoviral HI-HeLa cell culture assay (XTT cell protection), HRV-89; type: cell-based, human rhinovirus; settings: HRV serotype 89, HI-HeLa cells
Experimental: as §1, §2, §3, §4

HRV serotype 16 = assay: Antirhinoviral HI-HeLa cell culture assay (XTT cell protection), HRV-16; type: cell-based, human rhinovirus; settings: HRV serotype 16, HI-HeLa cells
Experimental: as §1, §2, §3, §4

HRV serotype 39 = assay: Antirhinoviral HI-HeLa cell culture assay (XTT cell protection), HRV-39; type: cell-based, human rhinovirus; settings: HRV serotype 39, HI-HeLa cells
Experimental: as §1, §2, §3, §4

HRV serotype 1A = assay: Antirhinoviral HI-HeLa cell culture assay (XTT cell protection), HRV-1A; type: cell-based, human rhinovirus; settings: HI-HeLa cells
Experimental: as §1, §2, §3, §4

HI-HeLa cells [1] = assay: Cytotoxicity in mock-infected HI-HeLa cells (XTT, antirhinoviral assay); type: cell-based; settings: mock-infected HI-HeLa cells, read-out: CC50
Experimental: as §1, §2
(§5) HRV stocks were propagated, and viral assays were performed in HI-HeLa cells (ATCC). Cells were grown in Minimal Essential Medium, available from Life Technologies, with 10% fetal bovine serum.

HI-HeLa cells [2] = assay: Cytotoxicity in uninfected HI-HeLa cells (XTT, anticoxsackieviral assay); type: cell-based; settings: one day
Experimental: (§6) The Coxsackie strain A-21 (CVA-21) was purchased from American Type Culture Collection (ATCC). Virus stocks were propagated, and antiviral assays were performed in HI-HeLa cells (ATCC). Cells were grown in Minimal Essential Medium with 10% fetal bovine serum.
(§7) The ability of compounds to protect cells against CVA-21 infection was measured by the XTT dye reduction method. This method is described in Weislow, O. S., Kiser, R., Fine, D. L., Bader, J., Shoemaker, R. H., Boyd, M. R., J. Natl. Cancer Inst. 1989, 81, 577-586, the disclosure of which is incorporated herein by reference. HI-HeLa cells were infected with CVA-21 at a multiplicity of infection (m.o.i.) of 0.05 (CVA-21) or mock-infected with medium only. Infected or uninfected cells were resuspended at 4×10^4 cells per mL and incubated with appropriate concentrations of drug. One day later, XTT/PMS was added to test plates, and the amount of formazan produced was quantified spectrophotometrically at 450/650 nm. […] The therapeutic index (TI) was calculated by dividing the CC50 by the EC50.

[3] = test system: Coxsackie strain A-21 (CVA-21); assay: Anticoxsackieviral HI-HeLa cell culture assay (XTT cell protection); type: cell-based; settings: CVA-21, HI-HeLa cells, m.o.i. 0.05, one day
Experimental: as §6
as §7, with “HI-HeLa cells were infected with CVA-21 at a multiplicity of infection (m.o.i.) of 0.05 (CVA-21) or mock-infected with medium only.” left out
The compounds were tested against control compound WIN 54954, obtained from Sterling-Winthrop Pharmaceuticals, and control compound Pirodavir, obtained from Janssen Pharmaceuticals.

[4] = target: T1, Recombinant Rhinovirus 3C protease serotype 14 (Human rhinovirus 14, UniProt P03303); assay: biochemical; settings: RVP serotype-14, progress curves, enzyme start experiments
T1 construct: Recombinant Rhinovirus 3C proteases from serotypes 14, 16, and 2; made in house
Experimental: Stock solutions (50 mM, in DMSO) of various compounds were prepared; dilutions were in the same solvent. […] Assays contained 2% DMSO, 50 mM tris pH 7.6, 1 mM EDTA, a compound at the indicated concentrations, approximately 1 μM substrate, and 50-100 nM protease. […] The kobs/I values were obtained from reactions initiated by addition of enzyme rather than substrate. RVP activity is measured in the fluorescence resonance energy transfer assay. […] In the uncleavaed peptide, the EDANS fluorescence was quenched by the proximal DABCYL moiety. When the peptide was cleaved, the quenching was relieved, and activity was measured as an increase in fluorescence signal.
The data in the column designated kobs/I was measured from progress curves enzyme start experiments.

[5] = Cytotoxicity in mock-infected HI-HeLa cells (XTT, antirhinoviral assay); type: cell-based; settings: human; mock-infected HI-HeLa cells; line for HRV serotype-14
Experimental: as §1, §2, §5

[6] = Cytotoxicity in uninfected HI-HeLa cells (XTT, anticoxsackieviral assay); type: cell-based; settings: human, one day
Experimental: as §6, §7

[7] = HRV serotype-14, HI-HeLa cells, m.o.i. 0.13, two days, XTT, read-out: EC50

T1 sequence (P03303 1538-1719): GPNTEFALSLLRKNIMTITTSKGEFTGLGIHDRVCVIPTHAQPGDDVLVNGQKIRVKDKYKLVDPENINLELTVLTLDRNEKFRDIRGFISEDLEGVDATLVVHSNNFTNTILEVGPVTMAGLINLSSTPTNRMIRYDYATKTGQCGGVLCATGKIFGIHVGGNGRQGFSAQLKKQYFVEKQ

Molecule: Ethyl-3-(CBZ-L-LeuΨ[COCH2]-D/L-Phe-L-Gln)-E-Propenoate [Compound 1 + 9 (˜1:1)]
- EC50 (HRV serotype-14; [7]): 1.3 µM
- EC50 (HRV serotype 2): 2 µM
- EC50 (HRV serotype 10): 4.1 µM
- EC50 (HRV serotype 89): 5.1 µM
- EC50 (HRV serotype 16): 2.8 µM

Molecule: CCOC(=O)/C=C/C(CCC(N)=O)NC(=O)C(CC(=O)C(NC(=O)OC1CCCC1)C(C)C)Cc1ccc(C)cc1 (stereo not drawn) [Compound 20]
- EC50 (HRV serotype-14; [7]): 0.042 µM
- EC50 (HRV serotype 2): 0.56 µM
- EC50 (HRV serotype 89): 0.47 µM
- EC50 (HRV serotype 39): 1.2 µM
- EC50 (HRV serotype 16): 0.15 µM
- EC50 (HRV serotype 1A): 0.53 µM
- CC50 (HI-HeLa cells [1]; line for HRV serotype 1A): > 3 µM
- CC50 (HI-HeLa cells [1]; line for HRV serotype 2): > 3 µM
- CC50 (HI-HeLa cells [1]; line for HRV serotype 10): > 3 µM
- CC50 (HI-HeLa cells [1]; line for HRV serotype 16): > 3 µM
- CC50 (HI-HeLa cells [1]; line for HRV serotype 39): > 3 µM
- CC50 (HI-HeLa cells [1]; line for HRV serotype 89): > 3 µM
- CC50 (HI-HeLa cells [1]; line for HRV serotype-14): > 3 µM

Molecule: CCOC(=O)/C=C/[C@H](CCC(N)=O)NC(=O)[C@@H](CC(=O)[C@@H](NC(=O)OC1CCCC1)C(C)C)Cc1ccc(F)cc1 [Compound 25, Ethyl-3-(CyPentylOCO-L-ValΨ[COCH2]-L-(p-F)Phe-L-Gln)-E-Propenoate]
- EC50 (HRV serotype-14; [7]): 0.14 µM
- EC50 (HRV serotype 10): 1.7 µM
- EC50 (HRV serotype 89): 0.32 µM
- EC50 (HRV serotype 39): 0.56 µM
- EC50 (HRV serotype 16): 0.71 µM
- EC50 (HRV serotype 1A): 0.9 µM
- CC50 (HI-HeLa cells [1]; line for HRV serotype 1A): > 3 µM
- CC50 (HI-HeLa cells [1]; line for HRV serotype 2): > 3 µM
- CC50 (HI-HeLa cells [1]; line for HRV serotype 10): > 3 µM
- CC50 (HI-HeLa cells [1]; line for HRV serotype 16): > 3 µM
- CC50 (HI-HeLa cells [1]; line for HRV serotype 39): > 3 µM
- CC50 (HI-HeLa cells [1]; line for HRV serotype 89): > 3 µM
- CC50 (HI-HeLa cells [1]; line for HRV serotype-14): > 3 µM

Molecule: CCOC(=O)/C=C/C(CCC(N)=O)NC(=O)C(CC(=O)C(NC(=O)SC1CCCC1)C(C)C)Cc1ccccc1 [Compound 7, Ethyl-3-(CyPentylSCO-L-ValΨ[COCH2]-L-Phe-L-Gln)-E-Propenoate]
- CC50 (HI-HeLa cells [1]; line for HRV serotype 2): > 10 µM
- CC50 (HI-HeLa cells [1]; line for HRV serotype 10): > 10 µM
- CC50 (HI-HeLa cells [1]; line for HRV serotype 39): > 10 µM
- CC50 (HI-HeLa cells [1]; line for HRV serotype 89): > 10 µM
- CC50 (HI-HeLa cells [2]): > 10 µM

Molecule: Cc1cc(CCCCCOc2c(Cl)cc(C3=NCCO3)cc2Cl)on1 [WIN 54954, reference compound]
- EC50 (HRV serotype-14; [7]): 2.13 µM
- CC50 (HI-HeLa cells [1]; line for HRV serotype-14): > 63 µM
- EC50 [3]: > 100 µM
- CC50 (HI-HeLa cells [2]): > 100 µM

Molecule: CCOC(=O)/C=C/C(CCC(N)=O)NC(=O)C(CC(=O)C(CC(C)C)NC1CCCC1)Cc1ccc(F)cc1 (stereo not drawn) [Compound 19]
- kobs/I [4]: 67,200 M^−1sec^−1
- EC50 (HRV serotype-14; [7]): 0.28 µM
- EC50 (HRV serotype 2): 0.71 µM
- EC50 (HRV serotype 10): 1.6 µM
- EC50 (HRV serotype 1A): 0.6 µM
- CC50 (HI-HeLa cells [1]; line for HRV serotype 1A): > 3 µM
- CC50 (HI-HeLa cells [1]; line for HRV serotype 2): > 3 µM
- CC50 (HI-HeLa cells [1]; line for HRV serotype 10): > 3 µM
- CC50 (HI-HeLa cells [1]; line for HRV serotype-14): > 3 µM

Molecule: CC(C)CC(NC(=O)SCc1ccccc1)C(=O)CC(Cc1ccccc1)C(=O)NC(C=CC(=O)N1CCc2ccccc21)CCC(N)=O [Compound 3, (2,3-Dihydroindole)-3-(BnSCO-L-LeuΨ[COCH2]-L-Phe-L-Gln)-E-Propenamide]
- kinact/KI ([4]; read-out: kobs/I): 29200 M⁻¹ s⁻¹
- EC50 (HRV serotype-14; Human rhinovirus sp., 48 h): 1.9 µM
- CC50 at 2 days [5]: 50.1 µM

Molecule: CCOC(=O)/C=C/C(CCC(N)=O)NC(=O)C(CC(=O)C(CC(C)C)NC(=O)SC1CCCC1)Cc1ccc(C)cc1 [Compound 21, Ethyl-3-(CyPentylSCO-L-LeuΨ[COCH2]-L-(p-CH3)Phe-L-Gln)-E-Propenoate]
- EC50 (HRV serotype 2): 1 µM
- EC50 (HRV serotype 10): 1.4 µM
- EC50 (HRV serotype 1A): 0.56 µM
- CC50 (HI-HeLa cells [1]; line for HRV serotype 1A): > 10 µM
- CC50 (HI-HeLa cells [1]; line for HRV serotype 2): > 10 µM
- CC50 (HI-HeLa cells [1]; line for HRV serotype 10): > 10 µM
- CC50 (HI-HeLa cells [1]; line for HRV serotype-14): > 10 µM

Molecule: CCOC(=O)c1ccc(OCCC2CCN(c3ccc(C)nn3)CC2)cc1 [Pirodavir, reference compound]
- EC50 (HRV serotype-14; Human rhinovirus sp., 48 h, HRV serotype-14, HI-HeLa cells, m.o.i. 0.13, two days, XTT, read-out: EC50): 0.03 µM
- CC50 at 2 days [5]: > 10 µM
- EC50 ([3]; 24 h): > 100 µM
- CC50 at 1 day [6]: > 100 µM
